Reference: ChEMBL document CHEMBL5729071, “Cyano thienotriazolodiazepines and uses thereof” (2022)

Target: Bromodomain-containing protein 4 (Homo sapiens, UniProt O60885)
Assay: Assays were performed as described previously with minor modifications from the manufacturer's protocol (PerkinElmer, USA). All reagents were diluted in 50 mM HEPES, 100 mM NaCl, 0.1% BSA, pH 7.4 supplemented with 0.05% CHAPS and allowed to equilibrate to room temperature prior to addition to plates. […] Plates were sealed and incubated for a further 30 minutes, before the addition of 4 μl of streptavidin-coated donor beads (25 μg/ml) and 4 μl nickel chelate acceptor beads (25 μg/ml) under low light conditions. Plates were foil-sealed to protect from light, incubated at room temperature for 60 minutes and read on a PHERAstar FS plate reader (BMG Labtech, Germany) using an AlphaScreen 680 excitation/570 emission filter set. IC50 values were calculated in Prism 5 (GraphPad Software, USA) after normalization against corresponding DMSO controls and are given as the final concentration of compound in the 20 μl reaction volume.

Cc1sc2c(c1C)C(c1ccc(C#N)cc1)=N[C@@H](CC(=O)OC(C)(C)C)c1nnc(C)n1-2
IC50: 97 nM
